Measurements: ChEMBL document CHEMBL1123387 (J Med Chem, 1986)
Square brackets hold non-standard residues; d marks the D form. Peptide text beside a SMILES is read from it. * marks the point of attachment. Sta = CC(C)C[C@H](N)[C@@H](O)CC(=O)O; Isovaleryl = CC(C)CC(=O)*; NHIsopentyl = CC(C)CCN*; Boc = CC(C)(C)OC(=O)*

Target: Pepsin A (Sus scrofa, UniProt P00791)
Assay: Compound was tested for inhibition of pepsin.

Pepsin A, sequence (P00791 whole entry): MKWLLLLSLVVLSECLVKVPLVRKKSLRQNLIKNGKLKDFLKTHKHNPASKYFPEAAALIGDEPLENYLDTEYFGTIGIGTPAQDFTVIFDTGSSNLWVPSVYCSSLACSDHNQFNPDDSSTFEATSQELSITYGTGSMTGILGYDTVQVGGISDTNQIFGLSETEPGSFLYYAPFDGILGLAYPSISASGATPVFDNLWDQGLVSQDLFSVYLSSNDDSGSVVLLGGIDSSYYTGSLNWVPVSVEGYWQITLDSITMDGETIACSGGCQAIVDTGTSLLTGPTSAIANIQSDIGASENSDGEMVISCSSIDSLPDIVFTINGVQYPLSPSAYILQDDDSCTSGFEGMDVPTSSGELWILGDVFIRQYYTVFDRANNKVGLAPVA

| Ki | Compound |
| --- | --- |
| 3.3 nM | CC(C)CCNC(=O)[C@H](C)NC(=O)C[C@H](O)[C@H](CC(C)C)NC(=O)[C@H](C)NC(=O)[C@H](C)NC(=O)[C@H](Cc1ccccc1)NC(=O)OC(C)(C)C (Boc-FAA[Sta]A-NHIsopentyl) |
| 1.7 nM | COC(=O)[C@H](CC(C)C)NC(=O)[C@@H](NC(=O)[C@H](Cc1ccccc1)NC(=O)C[C@H](O)[C@H](CC(C)C)NC(=O)[C@H](C)NC(=O)[C@H](C)NC(=O)[C@H](Cc1ccccc1)NC(=O)OC(C)(C)C)C(C)C (Boc-FAA[Sta]FVL-OMe) |
| 2.8 nM | COC(=O)[C@H](CC(C)C)NC(=O)[C@@H](NC(=O)C[C@H](O)[C@H](CC(C)C)NC(=O)[C@H](C)NC(=O)[C@H](C)NC(=O)[C@H](Cc1ccccc1)NC(=O)OC(C)(C)C)C(C)C (Boc-FAA[Sta]VL-OMe) |
| 24 nM | COC(=O)[C@H](CC(C)C)NC(=O)[C@@H](NC(=O)[C@H](Cc1ccccc1)NC(=O)C[C@H](O)[C@H](CC(C)C)NC(=O)[C@H](C)NC(=O)[C@H](Cc1ccccc1)NC(=O)[C@H](Cc1ccccc1)NC(=O)OC(C)(C)C)C(C)C (Boc-FFA[Sta]FVL-OMe) |
| 0.64 nM | COC(=O)[C@H](CC(C)C)NC(=O)[C@@H](NC(=O)[C@H](Cc1ccccc1)NC(=O)C[C@H](O)[C@H](CC(C)C)NC(=O)[C@H](C)NC(=O)[C@H](CC(C)C)NC(=O)[C@H](Cc1ccccc1)NC(=O)OC(C)(C)C)C(C)C (Boc-FLA[Sta]FVL-OMe) |

Target: T1, Cathepsin D (Bos taurus, UniProt P80209)
T1 sequence (P80209 whole entry): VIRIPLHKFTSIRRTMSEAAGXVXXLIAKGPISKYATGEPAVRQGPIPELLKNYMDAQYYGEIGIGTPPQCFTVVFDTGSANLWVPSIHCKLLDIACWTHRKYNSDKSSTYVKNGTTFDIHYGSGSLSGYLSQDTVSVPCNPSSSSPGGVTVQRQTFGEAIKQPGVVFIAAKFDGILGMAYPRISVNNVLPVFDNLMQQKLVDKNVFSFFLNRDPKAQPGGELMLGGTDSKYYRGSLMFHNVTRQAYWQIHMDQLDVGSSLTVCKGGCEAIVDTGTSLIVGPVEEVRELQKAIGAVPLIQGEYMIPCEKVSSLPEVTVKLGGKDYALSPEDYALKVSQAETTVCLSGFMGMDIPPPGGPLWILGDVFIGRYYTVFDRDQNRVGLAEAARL
Assay: Inhibition of cathepsin D.

| Ki | Compound |
| --- | --- |
| 3.7 nM | CC(C)CCNC(=O)[C@H](C)NC(=O)C[C@H](O)[C@H](CC(C)C)NC(=O)[C@@H](NC(=O)[C@@H](NC(=O)CC(C)C)C(C)C)C(C)C |
| 1.1 nM | CC(C)CCNC(=O)[C@H](C)NC(=O)C[C@H](O)[C@H](CC(C)C)NC(=O)[C@@H](NC(=O)[C@@H](NC(=O)OC(C)(C)C)C(C)C)C(C)C |
| 120 nM | CCC(CC)C(=O)N[C@H](C(=O)N[C@@H](CC(C)C)[C@@H](O)CC(=O)N[C@@H](C)C(=O)NCCC(C)C)C(C)C |
| 590 nM | CC(C)CCNC(=O)[C@H](C)NC(=O)C[C@H](O)[C@H](CC(C)C)NC(=O)[C@@H](NC(=O)C(C)C)C(C)C |
| 620 nM | CC(C)CCNC(=O)[C@H](C)NC(=O)C[C@H](O)[C@H](CC(C)C)NC(=O)[C@@H](NC(=O)OC(C)C)C(C)C |
| 2700 nM | CC(C)CCNC(=O)[C@H](C)NC(=O)C[C@H](O)[C@H](CC(C)C)NC(=O)[C@@H](NC(=O)OC(C)(C)C)C(C)C |
| 230 nM | CCC(C)C(=O)N[C@H](C(=O)N[C@@H](CC(C)C)[C@@H](O)CC(=O)N[C@@H](C)C(=O)NCCC(C)C)C(C)C (stereo partly specified) |
| 220 nM | CC(C)CCNC(=O)[C@H](C)NC(=O)C[C@H](O)[C@H](CC(C)C)NC(=O)[C@@H](NC(=O)CC(C)C)C(C)C |
| 52 nM | CC(C)CCNC(=O)[C@H](C)NC(=O)C[C@H](O)[C@@H](Cc1ccccc1)NC(=O)[C@H](NC(=O)CC(C)C)C(C)C |
| 1070 nM | CC(C)CCNC(=O)[C@H](C)NC(=O)C[C@H](O)[C@H](Cc1ccccc1)NC(=O)[C@H](NC(=O)CC(C)C)C(C)C |
| 4860 nM | CC(C)CCNC(=O)[C@H](C)NC(=O)C[C@H](O)[C@@H](Cc1ccccc1)NC(=O)[C@@H](NC(=O)OC(C)(C)C)C(C)C |
| 445 nM | CC(C)CCNC(=O)[C@H](C)NC(=O)C[C@@H](O)[C@@H](CC(C)C)NC(=O)[C@@H](NC(=O)[C@@H](NC(=O)OC(C)(C)C)C(C)C)C(C)C |
| > 100 nM | CC(C)CCNC(=O)[C@H](C)NC(=O)C[C@H](O)[C@@H](CC(C)C)NC(=O)[C@@H](NC(=O)[C@@H](NC(=O)CC(C)C)C(C)C)C(C)C |
| 370 nM | CC(C)CCNC(=O)[C@H](C)NC(=O)C[C@H](O)[C@H](Cc1ccccc1)NC(=O)[C@@H](NC(=O)OC(C)(C)C)C(C)C |
| 1400 nM | CC(C)CCNC(=O)[C@H](C)NC(=O)C[C@@H](O)[C@@H](CC(C)C)NC(=O)[C@@H](NC(=O)CC(C)C)C(C)C |
| 214 nM | CC(C)CCNC(=O)[C@H](C)NC(=O)C[C@H](C)[C@@H](CC(C)C)NC(=O)[C@@H](NC(=O)[C@@H](NC(=O)CC(C)C)C(C)C)C(C)C |
| 400 nM | CC(C)CCNC(=O)[C@H](C)NC(=O)C[C@H](C)[C@H](CC(C)C)NC(=O)[C@@H](NC(=O)[C@@H](NC(=O)CC(C)C)C(C)C)C(C)C |
| 2100 nM | CC(C)CCNC(=O)[C@H](C)NC(=O)C[C@H](O)[C@@H](CC(C)C)NC(=O)[C@@H](NC(=O)CC(C)C)C(C)C |

| Ki | Compound |
| --- | --- |
| 930 nM | CC(C)CCNC(=O)[C@H](C)NC(=O)C[C@H](C)[C@H](Cc1ccccc1)NC(=O)[C@@H](NC(=O)OC(C)(C)C)C(C)C |
| 95 nM | CC(C)CCNC(=O)[C@H](C)NC(=O)C[C@H](O)[C@@H](Cc1ccccc1)NC(=O)[C@@H](NC(=O)[C@@H](NC(=O)OC(C)(C)C)C(C)C)C(C)C |
| 2.1 nM | CC(C)CCNC(=O)[C@H](C)NC(=O)C[C@H](O)[C@H](Cc1ccccc1)NC(=O)[C@@H](NC(=O)[C@@H](NC(=O)OC(C)(C)C)C(C)C)C(C)C |
| 100 nM | CC(C)CCNC(=O)[C@H](C)NC(=O)C[C@H](O)[C@@H](Cc1ccccc1)NC(=O)[C@@H](NC(=O)[C@@H](NC(=O)CC(C)C)C(C)C)C(C)C |
| 1 nM | CC(C)CCNC(=O)[C@H](C)NC(=O)C[C@H](O)[C@H](Cc1ccccc1)NC(=O)[C@@H](NC(=O)[C@@H](NC(=O)CC(C)C)C(C)C)C(C)C |
| 25 nM | CC(C)CCNC(=O)[C@H](C)NC(=O)CC(=O)[C@H](CC(C)C)NC(=O)[C@@H](NC(=O)[C@@H](NC(=O)CC(C)C)C(C)C)C(C)C |
| 110 nM | CC(C)CCNC(=O)[C@H](C)NC(=O)C[C@H](O)[C@H](CC(C)C)NC(=O)[C@@H](NC(=O)C(C)(C)C)C(C)C |
| 1800 nM | COC(=O)[C@H](C)NC(=O)C[C@H](O)[C@H](CC(C)C)NC(=O)[C@@H](NC(=O)CC(C)C)C(C)C |
| 107 nM | CC(C)CCNC(=O)[C@H](C)NC(=O)C(C(=O)[C@H](CC(C)C)NC(=O)[C@@H](NC(=O)[C@@H](NC(=O)CC(C)C)C(C)C)C(C)C)[S+](C)C (stereo partly specified) |
| 100 nM | CC(C)CCNC(=O)[C@H](C)NC(=O)C[C@H](O)[C@H](CC(C)C)NC(=O)[C@H](C)NC(=O)[C@H](C)NC(=O)[C@H](Cc1ccccc1)NC(=O)OC(C)(C)C (Boc-FAA[Sta]A-NHIsopentyl) |
| 60 nM | COC(=O)[C@H](CC(C)C)NC(=O)[C@@H](NC(=O)[C@H](Cc1ccccc1)NC(=O)C[C@H](O)[C@H](CC(C)C)NC(=O)[C@H](C)NC(=O)[C@H](C)NC(=O)[C@H](Cc1ccccc1)NC(=O)OC(C)(C)C)C(C)C (Boc-FAA[Sta]FVL-OMe) |
| 12 nM | COC(=O)[C@H](CC(C)C)NC(=O)[C@@H](NC(=O)C[C@H](O)[C@H](CC(C)C)NC(=O)[C@H](C)NC(=O)[C@H](C)NC(=O)[C@H](Cc1ccccc1)NC(=O)OC(C)(C)C)C(C)C (Boc-FAA[Sta]VL-OMe) |
| 12 nM | COC(=O)[C@H](CC(C)C)NC(=O)[C@@H](NC(=O)[C@H](Cc1ccccc1)NC(=O)C[C@H](O)[C@H](CC(C)C)NC(=O)[C@H](C)NC(=O)[C@H](Cc1ccccc1)NC(=O)[C@H](Cc1ccccc1)NC(=O)OC(C)(C)C)C(C)C (Boc-FFA[Sta]FVL-OMe) |
| 5.8 nM | COC(=O)[C@H](CC(C)C)NC(=O)[C@@H](NC(=O)[C@H](Cc1ccccc1)NC(=O)C[C@H](O)[C@H](CC(C)C)NC(=O)[C@H](C)NC(=O)[C@H](CC(C)C)NC(=O)[C@H](Cc1ccccc1)NC(=O)OC(C)(C)C)C(C)C (Boc-FLA[Sta]FVL-OMe) |
| 90 nM | COC(=O)[C@H](C)NC(=O)C[C@H](O)[C@H](CC(C)C)NC(=O)[C@@H](NC(=O)[C@@H](NC(=O)CC(C)C)C(C)C)C(C)C (Isovaleryl-VV[Sta]A-OMe) |
| 23 nM | COC(=O)[C@H](Cc1ccccc1)NC(=O)[C@H](C)NC(=O)C[C@H](O)[C@H](CC(C)C)NC(=O)[C@@H](NC(=O)CC(C)C)C(C)C (Isovaleryl-V[Sta]AF-OMe) |
| 43 nM | COC(=O)[C@H](CC(C)C)NC(=O)[C@H](C)NC(=O)C[C@H](O)[C@H](CC(C)C)NC(=O)[C@@H](NC(=O)CC(C)C)C(C)C (Isovaleryl-V[Sta]AL-OMe) |
| 180 nM | CCOC(=O)C[C@H](O)[C@H](CC(C)C)NC(=O)[C@@H](NC(=O)[C@@H](NC(=O)CC(C)C)C(C)C)C(C)C (Isovaleryl-Val-Val-[Sta]-OEt) |
